Data published in US11814367B2, “Inhibitors of glycogen synthase 1 (GYS1) and methods of use thereof” (Maze Therapeutics, Inc., priority 2021, dated 2023).

What was measured:
[1] = target: hGYS1 enzyme (recombinant hGYS1/GN1 protein) (Homo sapiens (Human), UniProt P13807); assay: GYS1 coupled enzyme assay (PK/LDH); format: biochemical; conditions: hGYS1/GN1 50 nM, UDP-Glucose 0.8 mM, G6P 1 mM; geometric mean of at least 2 runs
[2] = test system: hGYS1 enzyme / glycogen synthesis in HeLa cells; assay: GYS1 cell based assay (glycogen synthesis, Glucose-glo); set-up: species or system human; conditions: Homo sapiens, HeLa, 24 h, 24 h incubation, 20 mM glucose, geometric mean of at least 2 runs
Outline: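 HeLa cells starved 24 h in medium containing only 1× Glutamax were plated onto compound in medium with 20 mM glucose (1% DMSO final) for 24 h, 37 °C, 5% CO2. Acid lysates were Tris-quenched, glucoamylase-digested (pH 5.3, 1 h, 37 °C) and read by Glucose-glo luminescence. IC50 came from Hill fits, as geometric mean of ≥2 runs.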

[3] = target: hGYS2 enzyme (recombinant hGYS2/GN1 protein) (Homo sapiens (Human), UniProt P54840); assay: GYS2 coupled enzyme assay (PK/LDH); format: biochemical; conditions: geometric mean of at least 2 assay runs on separate days, read-out: Avg_IC50
Chain of hGYS2 enzyme (recombinant hGYS2/GN1 protein) (P54840 whole entry): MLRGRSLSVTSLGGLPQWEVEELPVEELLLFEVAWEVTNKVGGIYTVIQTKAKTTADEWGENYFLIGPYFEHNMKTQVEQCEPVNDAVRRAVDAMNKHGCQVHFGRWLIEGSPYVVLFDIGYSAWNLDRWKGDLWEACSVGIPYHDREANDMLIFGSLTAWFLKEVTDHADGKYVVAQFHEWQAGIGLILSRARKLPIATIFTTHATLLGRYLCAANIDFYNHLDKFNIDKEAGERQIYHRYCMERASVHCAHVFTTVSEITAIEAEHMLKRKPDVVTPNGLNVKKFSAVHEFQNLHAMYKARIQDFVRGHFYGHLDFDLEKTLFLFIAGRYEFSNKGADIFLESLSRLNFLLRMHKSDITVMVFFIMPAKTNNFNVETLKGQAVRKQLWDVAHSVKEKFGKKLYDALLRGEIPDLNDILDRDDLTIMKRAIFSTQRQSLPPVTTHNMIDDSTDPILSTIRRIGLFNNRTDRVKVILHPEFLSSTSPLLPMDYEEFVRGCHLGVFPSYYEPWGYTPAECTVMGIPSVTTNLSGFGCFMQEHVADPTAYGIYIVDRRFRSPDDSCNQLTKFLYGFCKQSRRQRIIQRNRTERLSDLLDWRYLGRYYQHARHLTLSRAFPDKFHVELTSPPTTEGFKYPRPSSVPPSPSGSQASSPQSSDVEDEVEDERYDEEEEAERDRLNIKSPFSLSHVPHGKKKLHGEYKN
Chain of hGYS2 enzyme (recombinant hGYS2/GN1 protein) (P46976 whole entry partner): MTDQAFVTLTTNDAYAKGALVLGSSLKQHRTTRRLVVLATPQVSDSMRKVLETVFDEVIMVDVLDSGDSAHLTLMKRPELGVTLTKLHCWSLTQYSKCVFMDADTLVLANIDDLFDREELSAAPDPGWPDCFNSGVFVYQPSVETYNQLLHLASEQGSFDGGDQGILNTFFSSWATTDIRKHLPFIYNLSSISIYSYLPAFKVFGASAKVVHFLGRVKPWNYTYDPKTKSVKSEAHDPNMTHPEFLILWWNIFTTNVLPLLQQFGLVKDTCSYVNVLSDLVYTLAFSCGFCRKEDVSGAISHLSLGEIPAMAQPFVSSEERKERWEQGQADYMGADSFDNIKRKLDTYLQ
Outline: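 IC50 came from Hill fits of duplicate percent inhibition, based on control-normalized slopes of 340 nm NADH decline read each minute for 10 min. The reaction held recombinant hGYS2/GN1 (200 nM) with glycogen, UDP-glucose, G6P and PEP, plus PK/LDH coupling at pH 7.5 and 2.5% DMSO.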

Chain of hGYS1 enzyme (recombinant hGYS1/GN1 protein) (P13807 whole entry): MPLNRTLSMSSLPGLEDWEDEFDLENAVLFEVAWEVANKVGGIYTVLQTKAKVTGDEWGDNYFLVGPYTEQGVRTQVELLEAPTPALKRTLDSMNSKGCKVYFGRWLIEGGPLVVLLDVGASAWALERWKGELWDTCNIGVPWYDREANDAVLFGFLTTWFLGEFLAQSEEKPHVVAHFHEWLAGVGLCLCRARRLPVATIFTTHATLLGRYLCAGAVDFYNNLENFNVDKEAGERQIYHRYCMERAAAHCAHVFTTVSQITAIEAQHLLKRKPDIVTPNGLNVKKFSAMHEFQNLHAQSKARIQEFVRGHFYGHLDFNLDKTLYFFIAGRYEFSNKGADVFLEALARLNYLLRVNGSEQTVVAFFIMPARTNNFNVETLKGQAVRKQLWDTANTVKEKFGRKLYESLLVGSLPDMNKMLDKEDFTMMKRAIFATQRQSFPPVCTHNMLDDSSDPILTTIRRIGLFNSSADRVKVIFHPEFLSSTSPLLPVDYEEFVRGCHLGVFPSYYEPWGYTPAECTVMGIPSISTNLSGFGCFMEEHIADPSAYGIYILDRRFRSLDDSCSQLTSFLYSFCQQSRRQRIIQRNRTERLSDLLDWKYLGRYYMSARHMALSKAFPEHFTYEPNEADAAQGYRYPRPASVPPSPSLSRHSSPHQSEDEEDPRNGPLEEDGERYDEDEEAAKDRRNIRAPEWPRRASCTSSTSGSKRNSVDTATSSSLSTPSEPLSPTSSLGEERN
Chain of hGYS1 enzyme (recombinant hGYS1/GN1 protein) (P46976 whole entry partner): as the sequence (P46976 whole entry partner) above

Row | IC50 [1] | IC50 [2] | IC50 [3] | SMILES
1 | 6 nM | 70 nM | > 100000 nM | Cc1nccc(NCC(=O)N2C[C@H](F)C[C@H]2C(=O)N[C@@H](c2ccccc2)c2ccc(C(C)C)c(F)n2)n1 [Compound 404, (2S,4R)-4-fluoro-N-[(S)-[6-fluoro-5-(propan-2-yl)pyridin-2-yl](phenyl)methyl]-1-{2-[(2-methylpyrimidin-4-yl)amino]acetyl} pyrrolidine-2-carboxamide]
2 | 20 nM | 490 nM | > 100000 nM | CC(C)c1ccc([C@@H](NC(=O)[C@@H]2C[C@@H](F)CN2C(=O)[C@H](C)NC(=O)N(C)C)c2ccccc2)nc1F [Compound 405, (2S,4R)-1-[(2S)-2-[(dimethylcarbamoyl)amino]propanoyl]-4-fluoro-N-[(S)-[6-fluoro-5-(propan-2-yl)pyridin-2-yl](phenyl)methyl] pyrrolidine-2-carboxamide]
3 | 41 nM | 760 nM | > 100000 nM | CC(C)c1ccc([C@@H](NC(=O)[C@@H]2C[C@@H](F)CN2C(=O)[C@@H](C)NC(=O)N(C)C)c2ccccc2)nc1F [Compound 406, (2S,4R)-1-[(2R)-2-[(dimethylcarbamoyl)amino]propanoyl]-4-fluoro-N-[(S)-[6-fluoro-5-(propan-2-yl)pyridin-2-yl](phenyl)methyl] pyrrolidine-2-carboxamide]
4 | 15 nM | 420 nM | > 100000 nM | CC(C)c1ccc([C@@H](NC(=O)[C@@H]2C[C@@H](F)CN2C(=O)Cc2ncco2)c2ccccc2)nc1F [Compound 407, (2S,4R)-4-fluoro-N-[(S)-[6-fluoro-5-(propan-2-yl)pyridin-2-yl](phenyl)methyl]-1-[2-(1,3-oxazol-2-yl)acetyl]pyrrolidine-2-carboxamide]
5 | 8 nM | 130 nM | > 100000 nM | CC(C)c1ccc([C@@H](NC(=O)[C@@H]2C[C@@H](F)CN2C(=O)CNC(=O)N2CC(F)(F)C2)c2ccccc2)nc1F [Compound 410, (2S,4R)-1-{2-[(3,3-difluoroazetidine-1-carbonyl)amino]acetyl}-4-fluoro-N-[(S)-[6-fluoro-5-(propan-2-yl)pyridin-2-yl](phenyl)methyl]pyrrolidine-2-carboxamide]

The next lines start with the compound.

Row | SMILES | IC50 [1] | IC50 [2] | IC50 [3]
6 | Cc1cnc(CC(=O)N2C[C@H](F)C[C@H]2C(=O)N[C@@H](c2ccccc2)c2ccc(C(C)C)c(F)n2)o1 [Compound 408, (2S,4R)-4-fluoro-N-[(S)-[6-fluoro-5-(propan-2-yl)pyridin-2-yl](phenyl)methyl]-1-[2-(5-methyl-1,3-oxazol-2-yl)acetyl] pyrrolidine-2-carboxamide] | 8 nM | 350 nM | > 100000 nM
7 | Cc1coc(CC(=O)N2C[C@H](F)C[C@H]2C(=O)N[C@@H](c2ccccc2)c2ccc(C(C)C)c(F)n2)n1 [Compound 409, (2S,4R)-4-fluoro-N-[(S)-[6-fluoro-5-(propan-2-yl)pyridin-2-yl](phenyl)methyl]-1-[2-(4-methyl-1,3-oxazol-2-yl)acetyl] pyrrolidine-2-carboxamide] | 10 nM | 290 nM | > 100000 nM
8 | Cc1nn(CC(=O)N2C[C@H](F)C[C@H]2C(=O)N[C@@H](c2ccccc2)c2ccc(C(C)C)c(F)n2)c(=O)o1 [Compound 411, (2S,4R)-4-fluoro-N-[(S)-[6-fluoro-5-(propan-2-yl)pyridin-2-yl](phenyl)methyl)-1-[2-(5-methyl-2-oxo-2,3-dihydro-1,3,4-oxadiazol-3-yl)acetyl]pyrrolidine-2-carboxamide] | 10 nM | 220 nM | > 100000 nM
9 | CC(C)c1ccc([C@@H](NC(=O)[C@@H]2C[C@@H](F)CN2C(=O)Cn2ncc(N3CCC3)n2)c2ccccc2)nc1F [Compound 412, (2S,4R)-1-{2-[4-(azetidin-1-yl)-2H-1,2,3-triazol-2-yl]acetyl}-4-fluoro-N-[(S)-[6-fluoro-5-(propan-2-yl)pyridin-2-yl](phenyl)methyl] pyrrolidine-2-carboxamide] | 7 nM | 120 nM | > 100000 nM
